Measurements: US5212286A, “Atrial Natriuretic/vasodilator peptide compounds” (Scios Nova Inc., priority 1986, dated 1993)
Positions of bridges follow the written chain, without caps; N, C: chain ends. Residues, ends and D or L forms follow the SMILES beside them. No end group written: not given here.

Columns and labels:
[1] = tested on: rabbit thoracic aortic rings; assay: Relaxation of histamine-contracted rabbit thoracic aortic rings; details: tested as described for the expressed material
Procedure: (§1) Synthetic ANVP compounds were compared to partially purified (gel filtration step) and purified (HPLC) native ANVP compounds (See FIGS. 3A-D) for their ability to relax histamine-contracted aortic rings. Rings were suspended in 10 ml aerated Kreb's buffer under 1.5 gm passive tension. Rings were precontracted with 5 X 10^-6 M histamine, washed and allowed to return to baseline tension, as described (Kleinert, H. D., supra). Increasing amounts of purified or synthetic ANVP compounds were then added in cumulative fashion.
The dried methanol soluble and ammonium acetate eluted material was resolubilized in 0.5 ml of distilled H2 O and tested for biological activity using the precontracted rabbit thoracic aortic ring model described in Kleinert, et al., Hypertension 6:Suppl. 1:143-146 (1984). Equal volumes of material reconstituted from crude lyophilized media, methanol soluble protein or protein eluted from SP-Sephadex® with 1.0 M ammonium acetate were compared using aortic rings precontracted with 5 μM histamine. Material synthesized by yeast cultures whose plasmids encoded proANVP (amino acids 26-152) (YEp-α-NF-9) and proANVP (amino acids 121-152) (YEp-α-NF-5), as well as the corresponding inverse orientations (YEp-α-NF-12 and YEp-α-NF-7, respectively), were compared.
A fraction of the crude bacteria extract was subsequently boiled for 5 minutes and lowered to pH 2.5 for 1 hour. […]

[2] = tested on: ANVP receptor sites on cultured bovine vascular smooth muscle cells; assay: Displacement of specific [125I]rANVP(126-150) binding on cultured smooth muscle cells; details: for Ki: concentration of half-maximal displacement
Excerpt: Specific and saturable binding is a necessary component of a hormone/receptor interaction.
Various concentrations of the peptides described were examined for […]

[3] = tested on: precontracted rabbit or rat aortic preparations; assay: Vasorelaxant potency on precontracted aortic rings; details: for vasorelaxant potency in words: precontracted vascular preparations; for IC50: thoracic aortic segments precontracted with histamine or norepinephrine, read-out: IC50 (concentration producing half-maximal relaxation of the precontracted tissue)
Procedure: as §1, with “([…].,” for “(Kleinert, H. D.,”, “fashion. […] The relaxation effects of various ANVP compounds on precontracted rabbit or rat aortic preparations are shown in Table III. | Thoracic aortic segments were precontracted with histamine or | norepinephrine as previously described. Various doses of ANVP compounds | were then added and relaxation of the precontracted state was monitored. | Data are expressed as the concentration of each peptide required to | produce a halfmaximal relaxation of the precontracted tissue (IC50).” for “fashion.”

intact rats = assay: Natriuretic and diuretic effects in intact rats (bolus injection); type: in vivo, rat
Procedure: Synthetic ANVP compounds […] hANVP(127-151) were also found to be natriuretic in the intact rat. These compounds were administered as a bolus injection to Inactin anesthetized rats (100 mg/kg, average weight 399 g) which were maintained on a constant infusion of normal saline at 2.2 ml/hr. […] Data are expressed as mean±SE.

isolated rat kidney = assay: Renal function in the isolated perfused rat kidney
experimental animals = assay: Diuretic activity following infusion into experimental animals (FIG. 12B); type: in vivo; details: urinary flow rate as percentage of baseline
Excerpt: FIG. 12 graphically portrays a comparison of the activities of selected compounds of the present invention, in which Panel A depicts a dose response relationship comparing the vasorelaxant properties of rANVP […] and [Ala^130 ]rANVP(126-150) and Panel B portrays a comparison of the diuretic activities of the same two peptides following infusion into experimental animals. Urinary flow rates during and post infusion (periods 7-24) were compared to control (baseline) flow rates (periods 1-6) and data are expressed as the percentage of baseline control values;
In table VII, various ANVP compounds were tested over a ten-fold range of concentration. Most of the peptides induced diuresis and natriuresis with few exceptions ([D-Asp^135 ]rANVP(126-150), [D-Val^137 ] rANVP(126-150)]). […] This is perhaps best observed with the ANVP analog [Ala^130 ]rANVP(126-150). […] Thus, it appears that [Ala^130 ]rANVP(126-150), rANVP(126-147) and related peptide forms represent classes of compounds which may exert renal selectivity. Such compounds could have important therapeutic value.

anesthetized dogs = assay: Hemodynamic, renal and metabolic effects in anesthetized dogs; type: in vivo, dog
Procedure: Renal and hemodynamic effects have also been measured in anesthetized dogs receiving a constant infusion of the compound rANVP(126-149) (1 μg/kg bolus, followed by 0.1 μg/kg/min for 1 hour). Effects were immediately detected on blood pressure, GFR and urine flow rate and electrolyte excretion and were sustained throughout the infusion. The "experimental" data presented for these parameters in […] are the average values obtained during the infusion. Mean arterial pressure (MAP) fell consistently by 10-15% while GFR rose by 25-35%, in association with a sustained diuresis and natriuresis (Table VIII). The parameters returned to control (i.e. pre-infusion) levels following termination of the infusion.

[4] = dose 0.1 μg, experimental period E, mean of 3-8 experiments
[5] = experimental: average during infusion
[6] = recovery, after termination of the infusion
[7] = experimental peak value, 0.1 to 1.0 μg added to perfusate, mean ± SE of 4 kidneys

## CC[C@H](C)[C@@H]1NC(=O)[C@H](CCCNC(=N)N)NC(=O)[C@H](CC(=O)O)NC(=O)[C@H](CCSC)NC(=O)[C@H](CCCNC(=N)N)NC(=O)CNC(=O)CNC(=O)[C@H](Cc2ccccc2)NC(=O)[C@@H](NC(=O)[C@H](CO)NC(=O)[C@@H](N)CO)CSSC[C@@H](C(=O)N[C@@H](CC(N)=O)C(=O)N[C@@H](CO)C(=O)N[C@@H](Cc2ccccc2)C(=O)N[C@@H](CCCNC(=N)N)C(=O)N[C@@H](Cc2ccc(O)cc2)C(=O)O)NC(=O)CNC(=O)[C@H](CC(C)C)NC(=O)CNC(=O)[C@H](CO)NC(=O)[C@H](CCC(N)=O)NC(=O)[C@H](C)NC(=O)CNC1=O [hANVP(128-151)] (H-SSCFGGRMDRIGAQSGLGCNSFRY-OH; disulfide 3-19)
[1]
  biological (vasodilatory) activity of expression products, in words: displayed the full range of biological activities
[2]; Series A smooth muscle cells
  Ki: 7 nM

## CC[C@H](C)[C@@H]1NC(=O)[C@H](CCCNC(=N)N)NC(=O)[C@H](CC(=O)O)NC(=O)[C@H]([C@@H](C)CC)NC(=O)[C@H](CCCNC(=N)N)NC(=O)CNC(=O)CNC(=O)[C@H](Cc2ccccc2)NC(=O)[C@@H](NC(=O)[C@H](CO)NC(=O)[C@H](CO)NC(=O)[C@@H](N)CCCNC(=N)N)CSSC[C@@H](C(=O)N[C@@H](CC(N)=O)C(=O)N[C@@H](CO)C(=O)N[C@@H](Cc2ccccc2)C(=O)N[C@@H](CCCNC(=N)N)C(=O)N[C@@H](Cc2ccc(O)cc2)C(=O)O)NC(=O)CNC(=O)[C@H](CC(C)C)NC(=O)[C@@H](C)NC(=O)[C@H](CO)NC(=O)[C@H](CCC(N)=O)NC(=O)[C@H](C)NC(=O)CNC1=O [[D-Ala^142]rANVP(126-150), H-Arg-Ser-Ser-Cys-Phe-Gly-Gly-Arg-Ile-Asp-Arg-Ile-Gly-Ala-gln-Ser-[D-Ala]-Leu-Gly-Cys-Asn-Ser-Phe-Arg-Tyr-OH]
[3]
  vasorelaxant potency in words: most potent
  IC50: 0.62 nM
Intact rats; dose 3670 pmol/kg
  Peak Na+ Excr.: 9.1 ± 0.9 µmol/min
  Peak Urine Vol.: 66.3 ± 3 µL/min
[2]; Series A smooth muscle cells
  Ki: 0.6 nM
Isolated rat kidney; [4]
  .V (urine flow rate): 58.5 µL/min
  GFR: 0.75 mL/min
  UNa.V (urinary sodium excretion rate): 2.50 μEq/min

## CC[C@H](C)[C@@H]1NC(=O)[C@H](CCCNC(=N)N)NC(=O)[C@H](CC(=O)O)NC(=O)[C@H]([C@@H](C)CC)NC(=O)[C@H](CCCNC(=N)N)NC(=O)CNC(=O)CNC(=O)[C@H](C)NC(=O)[C@@H](NC(=O)[C@H](CO)NC(=O)[C@H](CO)NC(=O)[C@@H](N)CCCNC(=N)N)CSSC[C@@H](C(=O)N[C@@H](CC(N)=O)C(=O)N[C@@H](CO)C(=O)N[C@@H](Cc2ccccc2)C(=O)N[C@@H](CCCNC(=N)N)C(=O)N[C@@H](Cc2ccc(O)cc2)C(=O)O)NC(=O)CNC(=O)[C@H](CC(C)C)NC(=O)CNC(=O)[C@H](CO)NC(=O)[C@H](CCC(N)=O)NC(=O)[C@H](C)NC(=O)CNC1=O [[Ala^130]rANVP(126-150)]
[3]
  vasorelaxant potency in words: substantially less potent than rANVP(126-150)
  IC50: > 100 nM
[3]; listed as [Ala^130 ] rANVP
  vasorelaxant potency in words: essentially inactive
Experimental animals
  diuretic effects in vivo compared with rANVP(126-150) (FIG. 12b): nearly equipotent
[2]
  binding activity in smooth muscle cells relative to rANVP(126-150), in words: comparable binding activity to rANVP(126-150)
[2]; Series B smooth muscle cells
  Ki: 11.1 nM

## CC[C@H](C)[C@@H]1NC(=O)[C@H](CCCNC(=N)N)NC(=O)[C@H](CC(=O)O)NC(=O)[C@H]([C@@H](C)CC)NC(=O)[C@H](CCCNC(=N)N)NC(=O)CNC(=O)CNC(=O)[C@H](Cc2ccccc2)NC(=O)[C@@H](NC(=O)[C@H](CO)NC(=O)[C@H](CO)NC(=O)[C@@H](N)CCCNC(=N)N)CSSC[C@@H](C(=O)N[C@@H](CC(N)=O)C(=O)N[C@@H](CO)C(=O)N[C@@H](Cc2ccccc2)C(=O)N[C@@H](CCCNC(=N)N)C(=O)O)NC(=O)CNC(=O)[C@H](CC(C)C)NC(=O)CNC(=O)[C@H](CO)NC(=O)[C@H](CCC(N)=O)NC(=O)[C@H](C)NC(=O)CNC1=O [rANVP(126-149)] (H-RSSCFGGRIDRIGAQSGLGCNSFR-OH; disulfide 4-20)
Anesthetized dogs; during infusion
  fall of mean arterial pressure (MAP): 10-15%
  rise of GFR: 25-35%
Anesthetized dogs; [5]
  .V (urine flow rate): 1.06 ± 0.14 mL/min
  FEH2O (fractional water excretion): 3.4 ± 0.3%
  FEK: 34 ± 6%
  FENa: 4.1 ± 0.5%
  GFR: 32.3 ± 4.1 mL/min
  PA (plasma aldosterone): 5.4 ± 0.9 ng/100 ml
  PRA (plasma renin activity): 8.3 ± 1.8 ng/mL/h
  UK .V: 36 ± 6 μEq/min
  UNa .V: 187 ± 35 μEq/min
Anesthetized dogs; experimental: average during infusion, 1 μg/kg bolus then 0.1 μg/kg/min for 1 hour
  MAP (mean arterial pressure): 122 ± 4 mm Hg
Anesthetized dogs; [6]
  .V (urine flow rate): 0.37 ± 0.05 mL/min
  FEH2O (fractional water excretion): 1.5 ± 0.2%
  FEK: 21 ± 4%
  FENa: 1.9 ± 0.4%
  GFR: 25.4 ± 3.3 mL/min
  MAP (mean arterial pressure): 136 ± 4 mm Hg
  PA (plasma aldosterone): 7.0 ± 1.3 ng/100 ml
  PRA (plasma renin activity): 14 ± 2.5 ng/mL/h
  UK .V: 21 ± 4 μEq/min
  UNa .V: 68 ± 14 μEq/min
Intact rats; bolus injection, Inactin anesthetized rats
  natriuretic in the intact rat, in words: natriuretic
[2]; Series B smooth muscle cells
  Ki: 0.89 nM
Isolated rat kidney; [7]
  .V (urine flow rate): 97.6 ± 19.4 µL/min
  FEK (fractional potassium excretion): 52.1 ± 6.2%
  FENa (fractional sodium excretion): 6.6 ± 2.0%
  FF (filtration fraction): 0.021 ± 0.001
  FLNa (filtered load of sodium): 90.1 ± 5.2 μEq/min
  GFR (glomerular filtration rate): 0.63 ± 0.03 mL/min
  RVR (renal vascular resistance): 3.9 ± 0.3 mmHg/ml/min
  TNa (tubular reabsorption of sodium): 84.2 ± 4.8 μEq/min
  UK .V (urinary potassium excretion rate): 1.46 ± 0.16 μEq/min
  UNa.V (urinary sodium excretion rate): 6.01 ± 1.99 μEq/min

## hANVP(126-151): human product produced in CHO cells, as printed; probably prohANVP(26-151) (RRSSCFGGRMDRIGAQSGLGCNSFRY; ends and bridges not checked; cysteine pairing not given here; UniProt P01160 126-151, looked up, fragment)
[1]
  biological (vasodilatory) activity of expression products, in words: exhibited biological activity similar to that observed above
